Laboratory results taken from patent US20240148707A1, “MODULATION OF DRUG-DRUG INTERACTIONS OF VADADUSTAT” (Akebia Therapeutics, Inc., priority 2021, published 2024).
Where two headings read alike, the source gives them in different places. One block for each molecule: values may come before it.

Legend:
Assay type in all cases: in vivo, human
[1] = Phase 1 drug-drug interaction study, vadadustat as perpetrator with digoxin (Arm 1)
Experimental: A Phase 1, open-label, fixed sequence study was conducted in healthy male and female subjects to evaluate vadadustat as a perpetrator of DDIs with digoxin and/or adefovir. […] Subjects remained fasted for at least 4 hours after dosing. Following a 12-day washout period, subjects received vadadustat 600 mg QD beginning on Day 13 for 7 days (Days 13-19).

[2] = Phase 1 drug-drug interaction study, vadadustat as perpetrator with adefovir (Arm 2); conditions: for AUC(0-inf) / AUC(0-t) / Cmax: both sexes, human, plasma
Experimental: A Phase 1, open-label, fixed sequence study was conducted in healthy male and female subjects to evaluate vadadustat as a perpetrator of DDIs with digoxin and/or adefovir.
On the morning of Day 1, subjects received a single oral dose of adefovir 10 mg after at least a 10-hour overnight fast. Subjects remained fasted for at least 4 hours after dosing. Following a 3-day washout period, subjects received vadadustat 600 mg QD beginning on Day 4 for 5 days (Days 4-8). When administered alone, vadadustat was administered in the morning at least 30 minutes prior to breakfast. On Day 7 subjects received their morning dose of vadadustat 600 mg along with a single oral dose of adefovir 10 mg after at least a 10-hour overnight fast.

[3] = [14C]-labeled Compound 1 metabolism and excretion study in healthy adult males; conditions: healthy adult male (6), single oral 650 mg [14C]-labeled Compound 1
Source text: The urinary excretion rate of this drug and acyl glucuronide is less than 1% of the total radioactivity.

[4] = Phase I drug-drug interaction study with cyclosporine (Part 1, Arm 1)
Experimental: (§1) A phase I, open-label, 2-part study was conducted in healthy male and female subjects to evaluate the potential for interaction of cyclosporine (Part 1, Arm 1), probenecid (Part 1, Arm 2), and rifampin (Part 2) with vadadustat.
Subjects were randomized in a 1:1 ratio to 1 of 2 dosing sequences (A:B or B:A) to receive vadadustat 300 mg alone and vadadustat 300 mg in combination with oral cyclosporine 500 mg in a crossover design. Study drugs were administered in the morning after at least a 10-hour overnight fast. Subjects remained fasted for at least 4 hours post-dose. • Treatment A: a single oral dose of vadadustat (300 mg) administered as 2×150 mg tablets. • Treatment B: a single oral dose of vadadustat (300 mg) administered as 2×150 mg tablets co-administered with a single oral dose of cyclosporine (500 mg) administered as 5×100 mg capsules.
On the morning of Day 1, subjects received the first treatment (A or B). Following a 7-day washout, subjects crossed over to Period 2 to receive the second treatment of the dosing sequence (A or B) on Day 8.
On each dosing day (Day 1 and Day 8) blood samples for PK analysis were collected up to 48 hours post-dose. Subjects were discharged from the clinical research unit (CRU) on the morning of Day 10, after the final 48-hour post-dose PK sample had been collected. A follow-up phone call was conducted 30 days±2 days after the final dose.

[5] = Phase I drug-drug interaction study with probenecid (Part 1, Arm 2); conditions: for increase in exposure (AUC): administered with multiple doses of probenecid vs vadadustat alone
Experimental: as §1
On the morning of Day 1, subjects received a single oral dose of vadadustat (300 mg) as 2×150 mg tablets after at least a 10-hour overnight fast and remained fasted for at least 4 hours post-dose. Following a 2-day washout (Days 1 to 2), subjects received 1 oral probenecid 500 mg tablet Q12 h for 4 days (Days 3 to 6). On days that probenecid was administered alone (Days 3, 4, and 6), probenecid was administered in a fasted state 1 hour prior to a standard breakfast and 1 hour prior to an evening meal or snack. On Day 5, probenecid was co-administered with a single dose of vadadustat (300 mg as 2×150 mg tablets) following at least a 10-hour fast. Subjects remained fasted for at least 4 hours after dosing.
On days vadadustat was administered (Day 1 and Day 5), blood samples for PK analysis were collected up to 48 hours postdose. In addition, on vadadustat dosing days, pooled urine samples were collected up to 24 hours post-dose. Subjects were discharged from the CRU on the morning of Day 7, after the final 48-hour post-dose PK sample had been collected. A follow-up phone call was conducted 30 days±2 days after the final dose.

[6] = digoxin 0.5 mg single dose with vadadustat 600 mg QD (Day 16)
[7] = digoxin 0.5 mg with vs without vadadustat 600 mg QD
[8] = adefovir 10 mg with vs without vadadustat 600 mg QD
[9] = vadadustat 300 mg + cyclosporine 500 mg, single oral doses, fasted
[10] = vadadustat 300 mg alone, single oral dose, fasted
[11] = vadadustat 300 mg with vs without cyclosporine 500 mg
[12] = vadadustat 300 mg single dose + probenecid 500 mg Q12h (multiple doses), fasted
[13] = vadadustat 300 mg with vs without probenecid 500 mg Q12h

AUC(0-t) ([1]; both sexes, human, plasma, oral, digoxin 0.5 mg single dose with vadadustat 600 mg QD (Day 16), read-out: AUClast, geometric LSM, Treatment V + D): 31.7 ng·h/mL | AUC(0-inf) ([1]; both sexes, human, plasma, digoxin 0.5 mg alone, single oral dose, fasted, read-out: AUCinf, geometric LSM, Treatment D): 36.3 ng·h/mL | AUC(0-t) ([1]; both sexes, human, plasma, digoxin 0.5 mg alone, single oral dose, fasted, read-out: AUClast, geometric LSM, Treatment D): 34.6 ng·h/mL | Cmax, geometric LSM, Treatment D ([1]; digoxin 0.5 mg alone, single oral dose, fasted): 2.46 ng/mL | AUCinf, geometric LSM, Treatment V + D [1, 6]: 33.19 ng·h/mL | Cmax, geometric LSM, Treatment V + D [1, 6]: 1.64 ng/mL | AUCinf, Ratio (V + D)/D [1, 7]: 91.37% | AUClast, Ratio (V + D)/D [1, 7]: 91.49% | Cmax, Ratio (V + D)/D [1, 7]: 66.92% | decrease of digoxin Cmax ([1]; digoxin and vadadustat coadministered vs digoxin alone): ~35% | total exposure (AUClast and AUCinf) to digoxin ([1]; digoxin following multiple doses of vadadustat vs digoxin alone): unchanged
SMILES: C[C@H]1O[C@@H](O[C@H]2[C@@H](O)C[C@H](O[C@H]3[C@@H](O)C[C@H](O[C@H]4CC[C@@]5(C)[C@H](CC[C@@H]6[C@@H]5C[C@@H](O)[C@]5(C)[C@@H](C7=CC(=O)OC7)CC[C@]65O)C4)O[C@@H]3C)O[C@@H]2C)C[C@H](O)[C@@H]1O [digoxin]

SMILES: Nc1ncnc2c1ncn2CCOCP(=O)(O)O [adefovir]
AUCinf, Ratio (V + A)/A [2, 8]: 114.70% | AUClast, Ratio (V + A)/A [2, 8]: 114.74% | Cmax, Ratio (V + A)/A [2, 8]: 95.15% | systemic exposure to adefovir ([2]; adefovir administered with vadadustat vs adefovir alone): relatively unchanged | AUC(0-inf) ([2]; oral, adefovir 10 mg single dose with vadadustat 600 mg QD (Day 7), read-out: AUCinf, geometric LSM, Treatment V + A): 230 ng·h/mL | AUC(0-t) ([2]; oral, adefovir 10 mg single dose with vadadustat 600 mg QD (Day 7), read-out: AUClast, geometric LSM, Treatment V + A): 227 ng·h/mL | Cmax ([2]; oral, adefovir 10 mg single dose with vadadustat 600 mg QD (Day 7), read-out: Cmax, geometric LSM, Treatment V + A): 17.1 ng/mL | AUC(0-inf) ([2]; adefovir 10 mg alone, single oral dose, fasted, read-out: AUCinf, geometric LSM, Treatment A): 201 ng·h/mL | AUC(0-t) ([2]; adefovir 10 mg alone, single oral dose, fasted, read-out: AUClast, geometric LSM, Treatment A): 198 ng·h/mL | Cmax ([2]; adefovir 10 mg alone, single oral dose, fasted, read-out: Cmax, geometric LSM, Treatment A): 17.9 ng/mL

share of the total radioactivity (AUC0-∞) in plasma [3]: about 15% | AUCinf, geometric LSM, Treatment V + C [4, 9]: 39210 ng·h/mL | AUClast, geometric LSM, Treatment V + C [4, 9]: 38130 ng·h/mL | Cmax, geometric LSM, Treatment V + C [4, 9]: 3900 ng/mL | AUCinf, geometric LSM, Treatment V [4, 10]: 34480 ng·h/mL | AUClast, geometric LSM, Treatment V [4, 10]: 33430 ng·h/mL | Cmax, geometric LSM, Treatment V [4, 10]: 4500 ng/mL | AUCinf, Ratio (V + C)/V [4, 11]: 113.74% | AUClast, Ratio (V + C)/V [4, 11]: 114.04% | Cmax, Ratio (V + C)/V [4, 11]: 86.63% | changes in the Cmax and AUC values ([4]; vadadustat in combination with cyclosporine): no clinically relevant changes | increase in exposure (AUC) ([5]; listed as vadadustat-O-glucuronide): about 2 fold | increase in exposure (AUC) ([5]; listed as vadadustat-Oglucuronide): ~2 fold | change of Cmax values ([5]; in combination with probenecid): relatively unchanged | urinary excretion ([5]; in combination with probenecid): decreased | AUCinf, geometric LSM, Treatment V [5, 10]: 38240 ng·h/mL | AUClast, geometric LSM, Treatment V [5, 10]: 37410 ng·h/mL | Cmax, geometric LSM, Treatment V [5, 10]: 5590 ng/mL | AUCinf, geometric LSM, Treatment V + P [5, 12]: 86580 ng·h/mL | AUClast, geometric LSM, Treatment V + P [5, 12]: 83810 ng·h/mL | Cmax, geometric LSM, Treatment V + P [5, 12]: 6170 ng/mL | AUCinf, Ratio (V + P)/V [5, 13]: 226.39% | AUClast, Ratio (V + P)/V [5, 13]: 224.05% | Cmax, Ratio (V + P)/V [5, 13]: 110.38%
SMILES: O=C(O)CNC(=O)c1ncc(-c2cccc(Cl)c2)cc1O[C@@H]1O[C@H](C(=O)O)[C@@H](O)[C@H](O)[C@H]1O [Vadadustat-O-Glucuronide]
